Data published in BindingDB's records for doi:10.1016/j.chembiol.2005.07.009 (University of Dundee, 2005).
pIC50, pKd: −log10 of the molar value.

Legend:
Endochitinase B1 [E177A] = Endochitinase B1 [E177A] (Aspergillus fumigatus, UniProt Q873X9, E177A); assay: Enzyme Inhibition Assay
Endochitinase B1 [D175A] = Endochitinase B1 [D175A] (Aspergillus fumigatus, UniProt Q873X9, D175A); assay: Enzyme Inhibition Assay
Endochitinase B1 [Y245F] = Endochitinase B1 [Y245F] (Aspergillus fumigatus, UniProt Q873X9, Y245F); assay: Enzyme Inhibition Assay
Endochitinase B1 [A217G] = Endochitinase B1 [A217G] (Aspergillus fumigatus, UniProt Q873X9, A217G); assay: Enzyme Inhibition Assay
Endochitinase B1 [T138A] = Endochitinase B1 [T138A] (Aspergillus fumigatus, UniProt Q873X9, T138A); assay: Enzyme Inhibition Assay
Endochitinase B1 [E322A] = Endochitinase B1 [E322A] (Aspergillus fumigatus, UniProt Q873X9, E322A); assay: Enzyme Inhibition Assay
Endochitinase B1 [M243A] = Endochitinase B1 [M243A] (Aspergillus fumigatus, UniProt Q873X9, M243A); assay: Enzyme Inhibition Assay
Endochitinase B1 [R301K] = Endochitinase B1 [R301K] (Aspergillus fumigatus, UniProt Q873X9, R301K); assay: Enzyme Inhibition Assay
Endochitinase B1 [D246A] = Endochitinase B1 [D246A] (Aspergillus fumigatus, UniProt Q873X9, D246A); assay: Enzyme Inhibition Assay
[1] = target: cAMP-specific 3',5'-cyclic phosphodiesterase 4A (Homo sapiens, UniProt P27815); assay: PDE 4A Assay; settings: pH 7.5; 30 °C
Procedure: Phosphodiesterase 4A (PDE4A) was assayed using an Sf9-expressed GST-fusion, and activity was monitored by hydrolysis of [3H]cAMP to [3H]AMP using the PDE-SPA kit from Amersham Pharmacia Biotech.

Sequence of cAMP-specific 3',5'-cyclic phosphodiesterase 4A (P27815 whole entry, the tested form may be a part): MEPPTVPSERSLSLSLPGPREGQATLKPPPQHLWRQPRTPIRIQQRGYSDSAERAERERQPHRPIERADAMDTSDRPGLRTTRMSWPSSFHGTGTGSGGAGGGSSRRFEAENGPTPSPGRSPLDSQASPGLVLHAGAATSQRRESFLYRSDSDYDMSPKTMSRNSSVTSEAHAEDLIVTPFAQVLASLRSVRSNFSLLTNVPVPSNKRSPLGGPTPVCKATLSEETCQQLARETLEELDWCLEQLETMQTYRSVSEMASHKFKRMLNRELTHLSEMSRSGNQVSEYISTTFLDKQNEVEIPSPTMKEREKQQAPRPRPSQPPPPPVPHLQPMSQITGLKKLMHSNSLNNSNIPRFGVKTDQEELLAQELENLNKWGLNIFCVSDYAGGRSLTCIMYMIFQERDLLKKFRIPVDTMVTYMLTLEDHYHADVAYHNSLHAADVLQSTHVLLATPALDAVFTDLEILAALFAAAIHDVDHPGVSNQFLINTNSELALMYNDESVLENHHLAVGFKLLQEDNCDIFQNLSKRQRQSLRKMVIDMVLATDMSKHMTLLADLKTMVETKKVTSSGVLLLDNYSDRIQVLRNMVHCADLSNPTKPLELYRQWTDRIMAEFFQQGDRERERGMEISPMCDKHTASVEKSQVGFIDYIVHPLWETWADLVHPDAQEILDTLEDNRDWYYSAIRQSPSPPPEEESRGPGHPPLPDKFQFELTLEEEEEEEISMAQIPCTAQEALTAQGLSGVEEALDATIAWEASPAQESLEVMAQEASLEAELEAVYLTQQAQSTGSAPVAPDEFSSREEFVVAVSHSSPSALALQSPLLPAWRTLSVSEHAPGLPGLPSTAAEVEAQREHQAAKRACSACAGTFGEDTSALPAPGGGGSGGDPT

## CC(=O)CCCCn1c(=O)c2c(ncn2C)n(C)c1=O [1-(5-Oxohexyl)theobromine (pentoxifylline)]
Endochitinase B1 [E177A]
  pKd: 4.44
Endochitinase B1 [D175A]
  pKd: 4.00
Endochitinase B1 [Y245F]
  pKd: 4.19
Endochitinase B1 [A217G]
  pKd: 4.11
Endochitinase B1 [T138A]
  pKd: 4.19
Endochitinase B1 [E322A]
  pKd: 4.35
Endochitinase B1 [M243A]
  pKd: 4.74
Endochitinase B1 [R301K]
  pKd: 4.77
Endochitinase B1 [D246A]
  pKd: 4.21

## Cn1c(=O)c2c(ncn2C)n(C)c1=O
[1]
  pIC50: 3.13
